The values that follow come from patent US20250127835A1, “COMPOSITION BASED ON PLANT EXTRACTS AND USE THEREOF FOR THE PREVENTION AND/OR TREATMENT OF CARBOHYDRATE AND LIPID DYSMETABOLISM” (ESSERRE PHARMA SRL, priority 2021, published 2025).

In assay [1] the test system is adult individuals with moderate hypercholesterolaemia. Briefly: 6-arm, double-blind, placebo-controlled pilot clinical study, 12 weeks. The assay is classed as in vivo, humans. As to the method: All the enrolled subjects were subjected, 14 days prior to enrolment (T-14), to a pre-enrolment visit with blood tests to assess meeting the inclusion criteria. The individuals who at TO met the inclusion criteria underwent a randomization visit at which the respective treatment was assigned and blood tests were performed in relation to the reference parameters. The study lasted 12 weeks. At the end of treatment (T12), the subjects were subjected to an end-of-study visit and blood tests. The parameters investigated in the study are: Body mass index, systolic and diastolic blood pressure, blood glucose, total cholesterol, LDL, HDL, triglycerides, GOT, GPT, gGT, creatinine phosphokinase (CPK). […] The treatment called “placebo” consists of a tablet equal in shape, weight, colour size and flavour to the active tablet but containing “inert” material for the desired effect and consists of: microcrystalline cellulose, magnesium stearate, silicon dioxide, calcium phosphate, chlorophylline dye, yellow iron oxide dye, yellow coating agents. The treatments related to groups C, D, E and F consist of one tablet equal in appearance to the tablets of groups A and B but consisting of the single active ingredient, as described above in addition to excipients. The treatment tablets were packaged in anonymous white bottles, showing only the batch number consisting of an alphanumeric code and the expiration date. Neither the investigator nor the study subjects knew the contents of the bottles. The bottles of each treatment were placed in cardboard boxes containing a letter in a sealed envelope with reference to the batch number and content, to be opened only in case of need, as in cases of serious adverse events. After randomization, each study participant was given the vial with 30 tablets for the specific treatment of the group to which they belonged. All the subjects were instructed to take one tablet in the evening before bed for 12 weeks.

For assay [2], the system named is streptozocin-induced diabetic rats. Particulars: 6 mg/kg for 5 weeks; cited from earlier work.
For assay [3], the system named is 86 subjects of which 60 with type II diabetes mellitus. Particulars: 100 mg per day, after 3 months of supplementation; cited from earlier work.
For assay [4], the system named is hyperglycaemic subjects. Particulars: 300 mg daily dose; cited from earlier work.
Setting [5] is: after 12 weeks, printed as reduction of x% or as −x%.

Structures can show the parent of a compound that is named as a salt.

For `Cc1ncc(C[n+]2csc(CCO)c2C)c(N)n1` [THIAMINE, thiamine hydrochloride], in assay [1] (after 12 weeks), the “reductions in the parameters of interest” value is recorded as “did not show statistically significant reductions”. In addition, in assay [1] (after 12 weeks of treatment), the “increase of HDL cholesterol (HDL-C)” value is recorded as “no changes” and the “reduction of LDL cholesterol (LDL-C)” value is “did not achieve a percentage reduction”. Further, in assay [1] (setting [5]), the “reduction of fasting plasma glucose (FPG)” value is on record as “not detected” and the “reduction of triglycerides (TG)” value is on record as −1%. In addition, in assay [2], the HDL-c result is “increases”, the insulin result is on record as “increases”, the malonyldialdehyde result was “reduces” and the serum glucose result is “reduces”. In addition, in assay [2], the total cholesterol entry is reported as “reduces” and the triglycerides result was “reduces”. The total cholesterol entry in assay [3] is “significantly reduces”. Also, in assay [4], the diastolic pressure result was “reduces” and the systolic pressure entry is given as “reduces”.
